From patent publication US9249127B2 (Orion Corporation, priority 2012, dated 2016)
Like-named read-outs stand apart in the source and are kept apart here.

Target: T1, alpha2A receptor (Homo sapiens, UniProt P08913)
T1 sequence (P08913 1-465): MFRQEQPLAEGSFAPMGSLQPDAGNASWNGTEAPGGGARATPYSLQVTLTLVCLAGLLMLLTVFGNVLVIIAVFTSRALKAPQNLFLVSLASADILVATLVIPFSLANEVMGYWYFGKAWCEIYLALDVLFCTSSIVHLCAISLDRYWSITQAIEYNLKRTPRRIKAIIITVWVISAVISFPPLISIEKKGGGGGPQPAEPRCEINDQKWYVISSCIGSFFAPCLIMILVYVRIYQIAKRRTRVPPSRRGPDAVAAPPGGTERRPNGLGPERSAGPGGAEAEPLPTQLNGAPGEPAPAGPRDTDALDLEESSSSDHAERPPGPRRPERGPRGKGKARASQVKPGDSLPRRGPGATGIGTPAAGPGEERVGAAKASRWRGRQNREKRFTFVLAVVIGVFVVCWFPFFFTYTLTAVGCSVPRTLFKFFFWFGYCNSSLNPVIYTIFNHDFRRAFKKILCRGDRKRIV
Test: Alpha2A agonistic activity in vitro
Assay type: cell-based

[1] = in vitro, read-out: Alpha2A Agonism pEC50 (converted)

| Compound | EC50 (Alpha2A Agonism pEC50, in vitro) | Alpha2A Intrinsic Activity (in vitro) | EC50 [1] |
| --- | --- | --- | --- |
| C=Cc1cccc2c1CCOC2C1=NCCN1 (stereo not drawn) [Example 7, 2-(5-Vinylisochroman-1-yl)-4,5-dihydro-1H-imidazole] | 39.8 nM | 0.81 | – |
| COc1cccc2c1CCOC2C1=NCCN1 (stereo not drawn) [Example 17, 2-(5-Methoxyisochroman-1-yl)-4,5-dihydro-1H-imidazole] | – | 0.81 | 25.1 nM |
| CCOc1cccc2c1CCOC2C1=NCCN1 (stereo not drawn) [Example 51, 2-(5-Ethoxyisochroman-1-yl)-4,5-dihydro-1H-imidazole] | – | 0.26 | 631 nM |
